Patent US10214508B2, “Nitrogen-containing heterocyclic compound” (Takeda Pharmaceutical Company Limited, priority 2014, dated 2019)

Experiments:
[1] = target: T1, human M1 receptor (hCHRM1) (Homo sapiens, UniProt P11229); test: Measurement of M1 receptor positive allosteric modulator (M1PAM) activity, calcium fluorescence (FLIPRtetra); type: cell-based; details: 10 μM test compound with acetylcholine at EC20 (final 0.6-0.8 nM); 100% = acetylcholine 1 μM, 0% = DMSO; CHO-K1 cells expressing hCHRM1
T1 construct: expressed in transfected cells
T1 sequence (P11229 1-460): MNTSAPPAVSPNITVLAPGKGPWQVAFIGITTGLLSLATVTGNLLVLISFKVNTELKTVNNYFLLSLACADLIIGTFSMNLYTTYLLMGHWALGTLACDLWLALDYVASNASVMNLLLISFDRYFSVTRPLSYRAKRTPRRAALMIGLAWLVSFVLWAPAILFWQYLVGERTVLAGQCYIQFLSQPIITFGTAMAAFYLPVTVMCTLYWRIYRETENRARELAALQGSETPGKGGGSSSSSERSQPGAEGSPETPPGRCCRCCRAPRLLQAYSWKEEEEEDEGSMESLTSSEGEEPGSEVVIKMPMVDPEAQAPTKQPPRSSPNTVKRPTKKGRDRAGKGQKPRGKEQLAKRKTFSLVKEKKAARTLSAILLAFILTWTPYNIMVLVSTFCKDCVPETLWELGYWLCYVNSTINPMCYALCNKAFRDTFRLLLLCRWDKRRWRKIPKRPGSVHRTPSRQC
How it was run: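 CHO-K1 cells stably expressing hM1 were Fluo-4-loaded; compound added with acetylcholine at EC20 (0.6-0.8 nM final), calcium fluorescence read 1 min on FLIPRtetra. Activity scaled between DMSO (0%) and 1 μM acetylcholine (100%); inflection point of concentration–response reported as IP.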

IP1 production = test: Measurement of myo-inositol 1 phosphate (IP1) in hippocampi after oral administration; type: in vivo, male Long-Evans rats; details: rat hippocampus, relative to Vehicle administration group as 100%
Method: Measurement of Myo-Inositol 1 Phosphate (IP1)
Animals used were male Long-Evans rats. They were used after acclimation for at least 1 week. Test compounds were suspended in 0.5% (w/v) aqueous methylcellulose solution, and the suspension was orally administered to the rats. After a given time, lithium chloride was dissolved in saline and subcutaneously administered into the rats. After a given time, their bilateral hippocampi were isolated from the rats, and the wet weight thereof was measured. The isolated hippocampi were homogenized with HEPES buffer, followed by centrifugation. The IP1 and protein concentrations in the supernatant were measured by IP-One HTRF(R) assay kit (Cisbio Bioassays) and BCA protein assay kit (Thermo Scientific), respectively. The level of the IP1 production was expressed as the ratio of the concentration of IP1 to that of protein. The increase rate of the IP1 production was shown as a relative value when Vehicle administration group as 100%.

[2] = system: Scopolamine-induced memory deficits models; test: Novel object recognition test; type: in vivo, male Long-Evans rats; details: 2 hours before acquisition trial, scopolamine 0.1 mg/kg s.c., mean±standard error
Method: Novel Object Recognition Test Novel object recognition test is comprised of two trials called the acquisition and the retention trials. Scopolamine-induced memory deficits models were used for the test, and animals used were male Long-Evans rats (7-week-old). On the day before the test, for acclimation, the rats were allowed to freely move about the test box (40×40×50 cm) for 10 minutes. On the test day, the rats were acclimated to the test room for about for 1 hr prior to the test. The test compounds were orally administered to the rats in a single dose 2 hours before the acquisition trial. For induction of learning and memory deficits, scopolamine (0.1 mg/kg) was subcutaneously administered into the rats for 30 min before the acquisition trial. For the acquisition trial, two identical objects (A1, A2) were placed in the test box. The rats were put in the test box for 3 min, and the duration exploring each object was measured. The retention trial was performed for 4 hr after the acquisition trial. For the retention trial, one familiar object (A3) used for the acquisition trial and one novel object (B) having a different shape from A3 were placed in the test box. After setting the objects, the rats were introduced into the test box and retention trial was performed for 3 min. The duration for exploring each object in the acquisition trial and the retention trial was measured, and the exploration rate of novel object was calculated. The exploration rate of novel object was expressed as (the duration exploring the novel object)/[(the duration exploring the novel object)+(the duration exploring the familiar object)]×100(%) at mean±standard error.

| activity (%) at 10 μM [1] | SMILES | increase rate (%) of the IP1 production (IP1 production; 10 mg/kg) | exploration rate of novel object (%) ([2]; 10 mg/kg oral, control group 69.26±2.87%, solvent-scopolamine group 55.27±3.48%) | exploration rate of novel object (%) ([2]; 3 mg/kg oral, control group 66.74±3.01%, solvent-scopolamine group 47.48±3.66%) | increase rate (%) of the IP1 production (IP1 production; 3 mg/kg) | exploration rate of novel object (%) ([2]; 10 mg/kg oral, control group 66.74±3.01%, solvent-scopolamine group 47.48±3.66%) |
| --- | --- | --- | --- | --- | --- | --- |
| 86% | Cc1cnc(C(=O)N[C@H]2CCC[C@@H]2O)cc1Cc1ccc(-c2ccn(C)n2)cc1 [Example 1, N-((1S,2S)-2-hydroxycyclopentyl)-5-methyl-4-(4-(1-methyl-1H-pyrazol-3-yl)benzyl)pyridine-2-carboxamide] | 38% | 64.59±2.59% |  |  |  |
| 105% | Cc1nc(C(=O)N[C@H]2CCC[C@@H]2O)cc(Cc2ccc(-c3ccn(C)n3)cc2)c1C [Example 72, N-((1S,2S)-2-hydroxycyclopentyl)-5,6-dimethyl-4-(4-(1-methyl-1H-pyrazol-3-yl)benzyl)pyridine-2-carboxamide] | 70% |  | 53.16±2.80% |  |  |
| 103% | Cc1nc(C(=O)N[C@H]2CCCC[C@@H]2O)cc(Cc2ccc(-c3ccn(C)n3)nc2)c1C [Example 74, N-((1S,2S)-2-hydroxycyclohexyl)-5,6-dimethyl-4-((6-(1-methyl-1H-pyrazol-3-yl)pyridin-3-yl)methyl)pyridine-2-carboxamide] |  |  |  | 22% | 55.14±1.48% |
| 106% | Cc1nc(C(=O)N[C@H]2CCC[C@@H]2O)cc(Cc2ccc(-c3ccn(C)n3)nc2)c1C [Example 117, N-((1S,2S)-2-hydroxycyclopentyl)-5,6-dimethyl-4-((6-(1-methyl-1H-pyrazol-3-yl)pyridin-3-yl)methyl)pyridine-2-carboxamide] |  |  |  |  |  |
